Earlier results on one molecule are cited in US20060074053A1, “Ophthalmic solution containing quinolone antimicrobial compound” (SANTEN PHARMACEUTICAL CO., LTD., priority 2003, published 2006).

SMILES strings stand for the structures.

For this data set the following is noted: after instillation of ciprofloxacin-containing ophthalmic solution; Am. J. Ophthalmol., 117, pp 258-259 (1994).

On to `O=C(O)c1cn(C2CC2)c2cc(N3CCNCC3)c(F)cc2c1=O` [ciprofloxacin], for which the “precipitate on the surface of the eyes after instillation” value was “liberated as a precipitate on the surface of the eyes (corneal epithelium)”.
